Data: patent publication US9261497B2, “Method of treating cancer with modulators of SCFSkp2” (New York University, priority 2012, dated 2016)

How the values were obtained:
MDM2 = biological target: T1, MDM2 (Homo sapiens, UniProt Q00987); assay: MDM2 p53 in vitro ubiquitylation counter-screen; type: biochemical; settings: 50 μM inhibitor
T1 construct: purchased Boston Biochem
Description: p53 ubiquitylation was carried out with the p53 Ubiquitylation Kit (Boston Biochem) following manufacturers protocol. Immunoblotting was performed using mouse monoclonal p53 (Santa Cruz) and rabbit polyclonal MDM2 (Santa Cruz).

Ubc3 = biological target: T2, Ubc3 (Homo sapiens, UniProt P49427); assay: E2 ubiquitin charging (Ubc3~Ub conjugates); type: biochemical; settings: 50 μM inhibitor
T2 construct: purchased Boston Biochem
T2 sequence (P49427 1-236): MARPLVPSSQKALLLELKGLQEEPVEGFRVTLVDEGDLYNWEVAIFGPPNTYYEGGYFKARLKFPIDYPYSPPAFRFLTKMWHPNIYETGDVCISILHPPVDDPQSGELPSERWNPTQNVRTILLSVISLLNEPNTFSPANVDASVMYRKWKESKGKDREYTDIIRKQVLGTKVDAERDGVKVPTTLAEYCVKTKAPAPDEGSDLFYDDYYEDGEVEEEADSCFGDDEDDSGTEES
Description: In vitro reconstituted assays were performed as previously described (Dorrello et al., “S6K1- and betaTRCP-mediated Degradation of PDCD4 Promotes Protein Translation and Cell Growth,” Science 314:467-471 (2006), which is hereby incorporated by reference in their entirety) with the exceptions of the use of (1) unlabeled proteins (wild-type and mutant Skp2 and Cks1, p27, Flag-βTrCP, and HA-PDCD4) generated by in vitro transcription-translation (TNT T7 Coupled Reticulocyte Lysate System, Promega); (2) chain elongation with non-methylated ubiquitin; and (3) immunoblotting to detect poly-ubiquitylation. The following reagents were obtained from Boston Biochem: UBE1, His-UbcH3, His-UbcH5c, Ubiquitin, and Ubiquitin Aldehyde. Additional reagents include CDK2/CyclinE1 (Sigma-Aldrich), S6K (Invitrogen), Okadaic acid (Sigma), and DMSO (Sigma-Aldrich). […] Reactions were stopped in nondenaturing 2× Sample Buffer, with the addition of 10% Beta-mercaptoethanol as indicated, and analyzed by Western blotting.

[1] = test system: p27 in 501 Mel, SK-MEL-147, and SK-MEL-173; assay: Immunoblot of steady state protein levels in metastatic melanoma cell lines; type: cell-based, human; settings: 10 μM inhibitor; melanoma cells
Description: 501 Mel cells were also treated with MG-132 (a proteasome inhibitor) to confirm that p27 and p21 induction were responsive to known UPS inhibitors (FIG. 4A, right). […] Thus, treatment of cells with inhibitors targeting the Skp2-Cks1 interface induces protein levels of specific Skp2-Cks1 substrates.
Whole cell extracts were prepared and immunoblotted as previously described Dorrello et al., “S6K1- and betaTRCP-mediated Degradation of PDCD4 Promotes Protein Translation and Cell Growth,” Science 314:467-471 (2006), which is hereby incorporated by reference in its entirety. For knockdown of Skp2 or p27, shRNAs were induced with 2 ng/ml doxycycline for 48 hours, with the last 16 hours co-treated with 0.1% Vehicle or 10 μM inhibitors as indicated. For cycloheximide chase, cells were pretreated 16 h with 0.1% Vehicle or 10 μM inhibitors, followed by 20 ng/ml cycloheximide (Sigma) and whole cell extracts collected for each time point. […] Scanning densitometry was performed on immunoblots using Image J software. For cell cycle analysis, cells were treated with 0.1% Vehicle or 10 μM inhibitors for 16 h. 1×10^6 cells were fixed in 70% ethanol for 2 h, treated with 200 μg/ml RNase A (Invitrogen) for 30 minutes, and stained with 20 μg/ml Propidium Iodine (Sigma). All samples were assayed in triplicates. Signal was detected using the Becton Dickson LSRII flow cytometer and cell cycle profiles were analyzed with FloJo.

ECC-1 cells = assay: ECC-1 cell proliferation (MTS assay); type: cell-based, human; settings: for Increase in nuclear p27 and inhibition of cell proliferation following Skp2 knock-down: ECC-1, Skp2 siRNA, knock-down by 85%; for Inhibition of cell proliferation: ECC-1 transfected with control siRNA (FIG. 14B)
Description: ECC-1 cells in complete media were seeded at 1.2×10^5/well in 12-well plates and after 24 h the cells were transfected with either control siRNA or 10 nM Skp2 siRNA using HiPerfect transfection reagent (Qiagen; Valencia, Calif.) and siRNA to three different sites including a pool of siRNAs as shown in the experiment, as previously described (Huang et al., “Estrogen and Progesterone Regulate p27kip1 Levels via the Ubiquitin-Proteasome System: Pathogenic and Therapeutic Implications for Endometrial Cancer,” PLoS One 7:e46072 (2012), which is hereby incorporated by reference in its entirety). […] To determine the effect of C2 and C20 on cell proliferation after knock-down of Skp2, the cells were seeded in 96-well plates at a density of 1×10^4 in complete media, transfected, synchronized, treated with C2 and C20, and cell proliferation determined, as described above.

p27 in primary ECA cells = assay: p27 immunoblot in primary endometrial carcinoma (ECA) cells; settings: 10 μM for 18 h; for Increase of p27 levels over the Vehicle-treated control: grade I, total cell lysates; for Decrease of p27 in the cytoplasm / Increase of nuclear p27: grade II type I
Description: The endometrial carcinoma cell line (derived from a well-differentiated endometrioid Type I ECA) ECC-1 cells (ATCC, Manassas, Va.) were plated at a density of 3×10^5/well/6-well plate and grown in DMEM:F12 supplemented with 10% FBS (BioWest, Ocala, Fla.). The cell line was passaged in the laboratory for fewer than 6 months after receipt. […] ECAs were plated at a density of 2.2×10^6 cells/6-well Primaria® plates (BD Biosciences, San Jose, Calif.) in McCoys 5A media without phenol red containing 10% charcoal-stripped FBS, 2 mM L-Glutamine (Invitrogen) and antimycotic antibiotic solution (Mediatech, Hendon, Va.).
For subcellular fractionation, following treatments, cells were separated into nuclear and cytoplasmic fractions using the NE-PER kit (Thermo Scientific), and 10 μg cytoplasmic and nuclear protein fractions were loaded onto SDS-PAGE for immunoblotting. […] The membranes were incubated with peroxidase-conjugated goat anti-rabbit or goat anti-mouse secondary antibodies in TBST (1:2000; Thermo Scientific). […] Protein bands were resolved using the SuperSignal West Dura kit (Thermo Scientific), visualized by exposure to X-ray film (HyBlot; Denville Scientific, Denville, N.J.), and following densitometric scanning (Kodak Logic-100), the protein bands were quantified by normalizing to β-actin and compared to the untreated control, and the values represented by the graphs of relative protein levels compared to actin in each well and shown as % of Vehicle control.

JeKo-1 = assay: Cell viability, JeKo-1 mantle cell lymphoma; type: cell-based, human; settings: 24 hours, CalcuSyn
Description: Viable and metabolically active cells were assayed using CellTiter-Blue (Promega) or PrestoBlue (Invitrogen) following manufacturer's instruction. In a 96 well plate format, 15×10^3 cells were pretreated with 0.1% Vehicle or increasing concentration of inhibitors as noted (for 16 h, 24 h, 48 h, and/or 72 hr) and fluorescence was detected on the SpectraMax M2e (Molecular Devices) after 30 min incubation with dye.

T1 sequence (Q00987 whole entry, species assumed): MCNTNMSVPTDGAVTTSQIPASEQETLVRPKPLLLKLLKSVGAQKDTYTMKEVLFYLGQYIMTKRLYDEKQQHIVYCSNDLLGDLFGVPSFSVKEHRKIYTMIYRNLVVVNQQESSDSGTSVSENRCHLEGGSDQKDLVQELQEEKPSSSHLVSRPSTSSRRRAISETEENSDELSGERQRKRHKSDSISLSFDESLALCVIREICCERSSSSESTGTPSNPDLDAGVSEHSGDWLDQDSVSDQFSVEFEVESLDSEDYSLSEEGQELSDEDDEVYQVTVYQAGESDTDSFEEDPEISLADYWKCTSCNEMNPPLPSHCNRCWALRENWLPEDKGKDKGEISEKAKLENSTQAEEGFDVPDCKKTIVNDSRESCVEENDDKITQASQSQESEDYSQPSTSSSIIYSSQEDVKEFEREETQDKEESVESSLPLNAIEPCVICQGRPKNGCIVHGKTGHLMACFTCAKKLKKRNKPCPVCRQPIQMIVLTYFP

Compound: O=C(O)COc1ccc(C=C2SC(=O)N(CC(=O)c3ccc(Cl)cc3)C2=O)cc1 [Compound C16]
- MDM2 activity (p53 poly-ubiquitylation) (MDM2): not blocked
- E2 charging (Ubc3~Ub) (Ubc3): unaffected
- p27 protein induction [1]: induce p27 protein

Compound: O=C(NN=Cc1cc(Br)cc(Br)c1O)C(=Cc1ccccc1O)NC(=O)c1ccccc1 [Compound C20]
- MDM2 activity (p53 poly-ubiquitylation) (MDM2): not blocked
- E2 charging (Ubc3~Ub) (Ubc3): unaffected
- p27 protein induction [1]: induce p27 protein
- Increase in nuclear p27 and inhibition of cell proliferation following Skp2 knock-down (ECC-1 cells): completely abrogated
- Inhibition of cell proliferation (ECC-1 cells): 27%
- Increase of p27 levels over the Vehicle-treated control (p27 in primary ECA cells): 3 fold
- Decrease of p27 in the cytoplasm (p27 in primary ECA cells): approximately 25%
- Increase of nuclear p27 (p27 in primary ECA cells): 46%

Compound: COC(=O)C1=C(C)N(c2ccc(Br)cc2)C(=O)C1=Cc1ccccc1O [Compound C2]
- MDM2 activity (p53 poly-ubiquitylation) (MDM2): not blocked
- E2 charging (Ubc3~Ub) (Ubc3): unaffected
- p27 protein induction [1]: induce p27 protein
- IC50 (JeKo-1): 9.3 µM
- Increase in nuclear p27 and inhibition of cell proliferation following Skp2 knock-down (ECC-1 cells): completely abrogated
- Inhibition of cell proliferation (ECC-1 cells): 29%
- Increase of p27 levels over the Vehicle-treated control (p27 in primary ECA cells): 1.9 fold
- Decrease of p27 in the cytoplasm (p27 in primary ECA cells): approximately 25%
- Increase of nuclear p27 (p27 in primary ECA cells): 67%

Compound: O=C(O)COc1ccc(Br)cc1C=C1SC(=S)N(Cc2cccnc2)C1=O [Compound C1]
- MDM2 activity (p53 poly-ubiquitylation) (MDM2): not blocked
- E2 charging (Ubc3~Ub) (Ubc3): unaffected
- p27 protein induction [1]: induce p27 protein
- IC50 (JeKo-1): 4.8 µM
